From PubChem BioAssay (NCI)
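Tested at 5 concentrations; 48 h exposure; 96-well plates; endpoints linearly interpolated, else capped at highest concentration. TGI: total growth inhibition.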

Legend:
Assay in all cases: NCI tumour cell line growth inhibition, 48 h
P388 leukemia = tested on: P388 leukemia
P388/ADR leukemia = tested on: P388/ADR leukemia
SN12K1 renal = tested on: SN12K1 renal
LXFL 529 NSCLC = tested on: LXFL 529 NSCLC
RXF-631 renal = tested on: RXF-631 renal
BT-549 breast = tested on: BT-549 breast
HS 578T breast = tested on: HS 578T breast
MDA-MB-231 breast = tested on: MDA-MB-231 breast
MDA-MB-435 = tested on: MDA-MB-435
MDA-N = tested on: MDA-N
PC-3 prostate = tested on: PC-3 prostate
T-47D breast = tested on: T-47D breast
786-0 renal = tested on: 786-0 renal

SMILES: CC(C)Cc1ccc(C(C)C(=O)N2CCN(/C=C/c3ccccc3)CC2)cc1 (stereo not given)
- TGI (P388 leukemia): 29.8 µM
- TGI (P388/ADR leukemia): 42.1 µM
- TGI (SN12K1 renal): 27.1 µM

SMILES: O=c1cc[nH]c(=O)[nH]1
- TGI (P388 leukemia): 447 µM
- TGI (P388/ADR leukemia): 807 µM
- TGI (SN12K1 renal): 994 µM

SMILES: O=C1c2cccc3c2C(=O)c2c(cccc21)OCCOCCOCCOCCO3
- TGI (LXFL 529 NSCLC): > 100 µM
- TGI (RXF-631 renal): > 100 µM

SMILES: NC(CCCCCP(=O)(c1ccccc1)C1C=CC=CC1)C(=O)O (stereo not given)
- TGI (BT-549 breast): > 100 µM
- TGI (HS 578T breast): > 100 µM
- TGI (MDA-MB-231 breast): > 100 µM
- TGI (MDA-MB-435): > 100 µM
- TGI (MDA-N): > 100 µM
- TGI (PC-3 prostate): > 100 µM
- TGI (T-47D breast): > 100 µM

SMILES: CCN(CC)CCNc1ccc2nnn3c4ccc(OCCN(CC)CC)cc4c(=O)c1c23
- TGI (786-0 renal): > 100 µM
- TGI (BT-549 breast): > 100 µM
- TGI (HS 578T breast): > 100 µM
- TGI (MDA-MB-231 breast): > 100 µM
- TGI (MDA-MB-435): > 100 µM
- TGI (MDA-N): > 100 µM
- TGI (T-47D breast): > 100 µM

SMILES: O=P(O)(O)CCP(=O)(O)O
- TGI (786-0 renal): > 100 µM
- TGI (BT-549 breast): > 100 µM
- TGI (HS 578T breast): > 100 µM
- TGI (MDA-MB-231 breast): > 100 µM
- TGI (MDA-MB-435): > 100 µM
- TGI (MDA-N): > 100 µM
- TGI (PC-3 prostate): > 100 µM
- TGI (T-47D breast): > 100 µM

SMILES: COc1ccc(/C=C2\CCNC2=O)cc1
- TGI (P388 leukemia): > 100 µM
- TGI (P388/ADR leukemia): > 100 µM
- TGI (SN12K1 renal): > 100 µM

SMILES: C=CCc1c(O)c2c(c3oc(=O)cc(C)c13)CC(C)O2 (stereo not given)
- TGI (LXFL 529 NSCLC): > 100 µM

SMILES: CCCC(=O)OCC1OC(n2ccc(N)nc2=O)C(OC(=O)CCC)C1OC(=O)CCC (stereo not given)
- TGI (P388 leukemia): 13.9 µM
- TGI (P388/ADR leukemia): > 100 µM
- TGI (SN12K1 renal): > 100 µM

SMILES: CCOc1ncn(-c2ccc(NC(=S)Nc3ncccn3)cc2)n1
- TGI (BT-549 breast): 71.1 µM
- TGI (MDA-MB-231 breast): 64.6 µM
- TGI (MDA-MB-435): > 100 µM
- TGI (PC-3 prostate): > 100 µM
- TGI (T-47D breast): 62.2 µM

SMILES: Cc1c(O)ccc2c(O)c(NC(=O)c3ccc4c(c3)CCC(C)(C)O4)c(=O)oc12
- TGI (786-0 renal): > 100 µM
- TGI (BT-549 breast): > 100 µM
- TGI (HS 578T breast): > 100 µM
- TGI (MDA-MB-231 breast): > 100 µM
- TGI (MDA-MB-435): > 100 µM
- TGI (MDA-N): > 100 µM
- TGI (PC-3 prostate): > 100 µM
- TGI (T-47D breast): > 100 µM
